Measured values: patent US20230303544A1, “LMO2 PROTEIN INHIBITORS” (UNIVERSITY OF OXFORD, priority 2020, published 2023)
Where “and” joins values, the source holds several entries; their conditions need not be identical. Equal entries are not always repeated.

Tests used:
LMO2-ΔLID = biological target: T1, LMO2-ΔLID (Homo sapiens, UniProt P25791); test: WaterLOGSY NMR binding to LMO2-ΔLID; settings: RT
T1 construct: UniProt P25791; residues 26-156; hexa-histidine tag (N, cleaved yes); SUMO (N, cleaved yes); made in house; host or cells: E. coli Lemo21(DE3)
T1 sequence (P25791 with tags, fused parts or gaps): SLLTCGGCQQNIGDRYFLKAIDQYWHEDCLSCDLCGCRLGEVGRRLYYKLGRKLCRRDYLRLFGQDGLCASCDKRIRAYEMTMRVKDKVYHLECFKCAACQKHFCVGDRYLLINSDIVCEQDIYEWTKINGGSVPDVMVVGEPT
Description: (§1) WaterLOGSY NMR method was used to measure LMO2 ligand interaction (Bataille et al., 2020). WaterLOGSY experiments were conducted at a ^1H frequency of 600 MHz using a Bruker Avance spectrometer equipped with a BBI probe. All experiments were conducted at RT. 3 mm diameter NMR tubes with a sample volume of 200 μL were used for all experiments. For LMO2-LID, solutions were buffered using a 10 mM NaPO4, 250 mM NaCl solution. For LMO2-ΔLID, solutions were buffered using a 10 mM NaPO4, 50 mM NaCl solution. The sample preparation for measuring ligand binding with LMO2-LID is exemplified as follows; the compound (10 μL of a 10 mM solution in DMSO-d6) was added to an Eppendorf tube before sequential addition of the appropriate buffer (90 μL), D2O (20 μL), and the protein (80 μL, 25 μM). The resulting solution was vortexed to mix and transferred to a 3 mm NMR tube prior to the NMR analysis. The sample preparation for measuring ligand binding with LMO2-ΔLID is exemplified as follows; the compound (10 μL of a 10 mM solution in DMSO-d6) was added to an Eppendorf tube before sequential addition of the appropriate buffer (162 μL), D2O (20 μL), and the protein (8 μL, 250 μM). The resulting solution was vortexed to mix and transferred to a 3 mm NMR tube prior to the NMR analysis. […]

LMO2-LID = biological target: T2, LMO2-LID (Homo sapiens, UniProt P25791); test: WaterLOGSY NMR binding to LMO2-LID; settings: RT
T2 construct: made in house; host or cells: E. coli BL21(DE3)-Rosetta2 pLysS
T2 sequence (P25791 26-156 limits assumed): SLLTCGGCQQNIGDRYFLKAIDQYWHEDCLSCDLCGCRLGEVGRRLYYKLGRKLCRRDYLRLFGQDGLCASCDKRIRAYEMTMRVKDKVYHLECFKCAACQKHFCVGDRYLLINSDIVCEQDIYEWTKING
T2 sequence (Q86U70 336-375 partner limits assumed): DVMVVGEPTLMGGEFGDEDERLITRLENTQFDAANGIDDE
Description: as §1

[1] = biological target: T3, LMO2-iDAb LMO2dm3 interaction (Homo sapiens, UniProt P25791); test: LMO2-iDAb LMO2dm3 BRET assay; type: cell-based; settings: 22 h; for inhibition of LMO2-iDAb LMO2dm3 interaction (in words): BRET competition, Abd concentration 1 (or 5), 10, 20 μM; for IC50: BRET dose response, HEK293T cells, 0.01-50 μM
T3 construct: LMO2 cDNA was cloned into the pEF-RLuc8-MCS and pEF-MCS-RLuc8 plasmids; expressed in transfected cells; host or cells: HEK293T
T3 sequence (P25791 1-158): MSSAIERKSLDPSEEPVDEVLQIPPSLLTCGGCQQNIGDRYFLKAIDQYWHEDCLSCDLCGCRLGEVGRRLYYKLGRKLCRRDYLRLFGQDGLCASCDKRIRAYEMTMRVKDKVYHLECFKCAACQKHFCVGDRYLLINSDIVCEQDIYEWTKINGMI
Description: For all BRET experiments (titration curves and competition assays) 650,000 HEK293T were seeded in each well of a 6 well plates. After 24 hours at 37° C., cells were transfected with a total of 1.6 μg of DNA mix, containing the donor+acceptor±competitor plasmids, using Lipofectamine 2000 transfection reagent (Thermo-Fisher). In dose response competition experiments, competitors were transfected with the following amount of DNA: 0.1; 0.5 and 1 μg. In single dose competition experiments, competitors were transfected with […] of DNA. Cells were detached 24 hours later, washed with PBS and seeded in a white 96-well plate (clear bottom, PerkinElmer, Cat #6005181) in OptiMEM no phenol red medium complemented with 4% FBS and cells were incubated for an additional 20-24 hours at 37° C. before the BRET assay reading. A detailed BRET protocol is provided by Bery and Rabbitts, (2019).
Compounds were prepared in 100% DMSO at 10 mM. For BRET competition assays, cells were treated with the indicated compounds at concentration of 1 (or 5), 10 and 20 μM for 22 h. For BRET-based dose response experiments, cells were treated with compounds at concentration of 0.01, 0.1, 1, 4, 10, 25 and 50 μM for 22 h. The compounds were diluted in the BRET medium: OptiMEM no phenol red (Life Technologies) supplemented with 4% FBS and with a final concentration of 0.2% DMSO.
BRET2 signal was determined immediately after injection of coelenterazine 400a substrate (10 μM final) to cells (Cayman Chemicals), using a CLARIOstar instrument (BMG Labtech) with a luminescence module. Total GFP^2 fluorescence was detected with excitation and emission peaks set at 405 nm and 515 nm respectively. Total RLuc8 luminescence was measured with the Luminescence 400-700 nm-wavelength filter.
The BRET signal or BRET ratio corresponds to the light emitted by the GFP^2 acceptor constructs (515 nm±30) upon addition of coelenterazine 400a divided by the light emitted by the RLuc8 donor constructs (410 nm±80). The background signal is subtracted from that BRET ratio using the donor-only negative control where only the RLuc8 fusion plasmid is transfected into the cells. The normalized BRET ratio is the BRET ratio normalized to a negative control (iDAb control or DMSO control) during a competition assay. Total GFP^2 and RLuc8 signals were used to control the protein expression from each plasmid.

[2] = Parallel artificial membrane permeability assay (PAMPA); type: in vitro ADME; settings: 10 μM donor, pH 5, 6.5 and 7.4, 16 hours, 30° C.
Description: The parallel artificial membrane permeability assay (PAMPA) was used to determine compound permeability by passive diffusion. The assay used an artificial membrane consisting of 2% phosphatidyl choline in dodecane (Sigma Aldrich, Dorset, UK). The donor plate was a MultiScreen-IP Plate with 0.45 μm hydrophobe Immobilon-P Membrane (Millipore, UK) and the acceptor plate was a MultiScreen 96-well Transport Receiver Plate (Millipore, UK). The permeability was measured at 3 different pH levels: pH 5, 6.5 and pH 7.4 in buffer containing 1% Bovine Serum Albumin (Sigma Aldrich, Dorset, UK). A 10 mM DMSO stock solution of test compound was used to prepare the 10 μM PAMPA donor solutions and calibration curves in each of the three buffers.
6 μL of the membrane solution was added to each well of the donor plate. Buffer donor solutions (200 μL) were added to the appropriate wells of the PAMPA donor plate. 300 µL per well of blank PBS (pH 7.4) was added to the PAMPA acceptor plate.
The donor and acceptor plates were then sandwiched together, covered with a lid and incubated at 30° C. in a humid environment for 16 hours. After the incubation period the plates were removed from the incubator and the sandwich was dismantled. […] All sample supernatants were diluted and analysed using a Waters (Milford, MA, US) TQ-S LC-MS/MS system.
Permeability values (cm/s) were calculated using the following equation: […]

[3] = tested on: Caco-2 human colon carcinoma cell line; test: Caco-2 permeability assay; type: in vitro ADME; settings: 10 μM, 2 hours, 37° C.
Description: Caco-2 apparent permeability (Papp) was determined in the Caco-2 human colon carcinoma cell line as described (Bavetsias et al., 2016). Cells were maintained (DMEM with 10% fetal bovine serum, penicillin, and streptomycin) in a humidified atmosphere with 5% CO2/95% air for 10 days. Cells were plated out onto a cell culture assembly plate (Millipore, UK), and monolayer confluency was checked using a TEER electrode prior to the assay. Media was washed off and replaced with HBSS buffer (pH7.4) containing compound (10 μM, 1% DMSO) in the appropriate apical and basal donor wells. HBSS buffer alone was placed in acceptor wells. In particular instances a specific P-gp inhibitor, LY335979 (5 μM), was added to the HBSS. The Caco-2 plate was incubated for 2 hours at 37° C. Samples from the apical and basolateral chambers were analysed using a Waters (Milford, MA, US) TQ-S LC-MS/MS system. The cell permeability properties of Abd-L compounds was compared to low (nadolol) and high (antipyrine) permeability compounds and a compound with high export (indinavir).
Apparent permeability (Papp) was determined as follows: […]

Row | SMILES | inhibition of LMO2-iDAb LMO2dm3 interaction (in words) [1] | IC50 [1] | further results
1 | O=C(NCc1ccc(Oc2ccccc2)cc1)c1coc(N2CCN(Cc3ccccc3)C2=O)n1 [Abd-L13, 2-(3-benzyl-2-oxoimidazolidin-1-yl)-N-(4-phenoxybenzyl)oxazole-4-carboxamide] | – | – | binding to LMO2-ΔLID by waterLOGSY NMR (LMO2-ΔLID): bind and showed binding and Direct binding; binding to LMO2-LID by waterLOGSY NMR (LMO2-LID): not
2 | COc1ccc(NC(=O)c2cnc(N3CCN(Cc4ccc(Cl)cc4)C3=O)o2)cc1OC [Abd-L8, 2-(3-(4-chlorobenzyl)-2-oxoimidazolidin-1-yl)-N-(3,4-dimethoxyphenyl)oxazole-5-carboxamide] | unable to inhibit | – | –
3 | CS(=O)(=O)Nc1ccccc1NC(=O)c1cnc(N2CCN(Cc3ccccc3)C2=O)s1 [Abd-L5, 2-(3-benzyl-2-oxoimidazolidin-1-yl)-N-(2-(methylsulfonamido)phenyl)thiazole-5-carboxamide] | unable to inhibit | – | –
4 | N#Cc1cccc(CN2CCN(c3nc(C(=O)Nc4ccc(-n5cccc5)cc4)co3)C2=O)c1 [Abd-L10, N-(4-(1H-pyrrol-1-yl)phenyl)-2-(3-(3-cyanobenzyl)-2-oxoimidazolidin-1-yl)oxazole-4-carboxamide] | – | ~1 µM and 1 µM | –
5 | COc1cccc(CN2CCN(c3nc(C(=O)Nc4ccc(-n5cccc5)cc4)co3)CC2)c1 [Abd-L15, N-(4-(1H-pyrrol-1-yl)phenyl)-2-(4-(3-methoxybenzyl)piperazin-1-yl)oxazole-4-carboxamide] | – | 16.6 µM | –
6 | O=C(NCCc1ccccc1)c1cnc(N2CCN(Cc3ccc(Cl)cc3)C2=O)o1 [Abd-L11, 2-(3-(4-chlorobenzyl)-2-oxoimidazolidin-1-yl)-N-phenethyloxazole-5-carboxamide] | unable to inhibit | – | –
7 | COc1cccc(CN2CCN(c3nc(C(=O)Nc4ccc(OCc5ccccc5)cc4)co3)C2=O)c1 [Abd-L9, N-(4-(benzyloxy)phenyl)-2-(3-(3-methoxybenzyl)-2-oxoimidazolidin-1-yl)oxazole-4-carboxamide] | most potent inhibitor | 1.5 µM | PAMPA permeability (in words) [2]: best properties; binding to LMO2-ΔLID by waterLOGSY NMR (LMO2-ΔLID): bind and showed binding and Direct binding; binding to LMO2-LID by waterLOGSY NMR (LMO2-LID): not; Caco-2 cell permeability (in words) [3]: low transport; Caco-2 efflux (in words) [3]: low efflux ratio

More lines, main results first:

Row | inhibition of LMO2-iDAb LMO2dm3 interaction (in words) [1] | IC50 [1] | SMILES | further results
8 | – | 48.8 µM | COc1ccc(CN2CCN(c3nc(C(=O)Nc4ccc(-n5cccc5)cc4)co3)CC2)cc1 [Abd-L19, N-(4-(1H-pyrrol-1-yl)phenyl)-2-(4-(4-methoxybenzyl)piperazin-1-yl)oxazole-4-carboxamide] | –
9 | – | 1.2 µM | COc1cccc(CN2CCN(c3nc(C(=O)Nc4ccc(OCc5ccccc5)cc4)co3)CC2)c1 [Abd-L16, N-(4-(benzyloxy)phenyl)-2-(4-(3-methoxybenzyl)piperazin-1-yl)oxazole-4-carboxamide] | –
10 | do not affect | – | COc1cccc(CN2CCN(c3nccc(C(=O)Nc4ccc(-n5cccc5)cc4)n3)CC2)c1 [Abd-L25, N-(4-(1H-pyrrol-1-yl)phenyl)-2-(4-(3-methoxybenzyl)piperazin-1-yl)pyrimidine-4-carboxamide] | –
11 | do not affect | – | COc1cccc(CN2CCCN(c3nc(C(=O)Nc4ccc(-n5cccc5)cc4)co3)C2=O)c1 [Abd-L24, N-(4-(1H-pyrrol-1-yl)phenyl)-2-(3-(3-methoxybenzyl)-2-oxotetrahydropyrimidin-1(2H)-yl)oxazole-4-carboxamide] | –
12 | – | 13 µM | COc1cccc(CN2CCN(c3nc(C(=O)Nc4ccc(OCc5ccccc5)cc4)cs3)CC2)c1 [Abd-L17, N-(4-(benzyloxy)phenyl)-2-(4-(3-methoxybenzyl)piperazin-1-yl)thiazole-4-carboxamide] | –
13 | – | 15.8 µM | COc1cccc(CN2CCN(c3nc(C(=O)Nc4ccc(-n5cccc5)cc4)cs3)CC2)c1 [Abd-L18, N-(4-(1H-pyrrol-1-yl)phenyl)-2-(4-(3-methoxybenzyl)piperazin-1-yl)thiazole-4-carboxamide] | –
